Where a name gives a salt, the structure may show the parent alone. Read-outs that look alike come from different tables or passages of the source.
Experiments:
[1] = molecular target: T1, human CYP2C19 (Homo sapiens, UniProt P33261); experiment: biochemical; details: for AC50: CYP2C19 AC50 (half-maximal activity concentration)
[2] = molecular target: T2, human CYP2C9 (Homo sapiens, UniProt P11712); experiment: biochemical
[3] = molecular target: human CYP2D6 (Homo sapiens, UniProt P10635); experiment: biochemical; details: for AC50: CYP2D6 AC50 (half-maximal activity concentration)
[4] = molecular target: T3, human CYP1A2 (Homo sapiens, UniProt P05177); experiment: biochemical
T3 sequence (P05177 1-516): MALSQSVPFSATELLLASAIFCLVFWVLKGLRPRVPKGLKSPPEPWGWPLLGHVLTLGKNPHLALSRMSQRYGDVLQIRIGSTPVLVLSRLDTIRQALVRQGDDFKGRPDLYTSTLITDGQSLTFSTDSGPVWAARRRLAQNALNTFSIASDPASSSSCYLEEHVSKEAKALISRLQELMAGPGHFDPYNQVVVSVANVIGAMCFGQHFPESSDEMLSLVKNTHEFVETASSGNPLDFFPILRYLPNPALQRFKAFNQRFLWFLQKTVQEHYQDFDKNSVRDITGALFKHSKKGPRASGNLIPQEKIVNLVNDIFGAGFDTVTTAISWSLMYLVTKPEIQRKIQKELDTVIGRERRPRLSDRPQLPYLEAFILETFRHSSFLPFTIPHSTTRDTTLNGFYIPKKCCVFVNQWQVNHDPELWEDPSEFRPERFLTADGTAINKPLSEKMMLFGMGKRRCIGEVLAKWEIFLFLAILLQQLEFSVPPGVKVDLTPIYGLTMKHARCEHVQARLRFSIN

[5] = molecular target: Photinus pyralis (firefly) luciferase (Photinus pyralis, UniProt P08659); experiment: biochemical; type: biochemical
[6] = molecular target: T3, human CYP1A2
[7] = molecular target: T2, human CYP2C9
[8] = molecular target: T1, human CYP2C19
[9] = CYP2C19 IC50 (half-maximal inhibitory concentration)
[10] = CYP2C9 IC50 (half-maximal inhibitory concentration)
[11] = CYP2D6 IC50 (half-maximal inhibitory concentration)
[12] = CYP1A2 IC50 (half-maximal inhibitory concentration)

Chain of human CYP2D6 (P10635 whole entry): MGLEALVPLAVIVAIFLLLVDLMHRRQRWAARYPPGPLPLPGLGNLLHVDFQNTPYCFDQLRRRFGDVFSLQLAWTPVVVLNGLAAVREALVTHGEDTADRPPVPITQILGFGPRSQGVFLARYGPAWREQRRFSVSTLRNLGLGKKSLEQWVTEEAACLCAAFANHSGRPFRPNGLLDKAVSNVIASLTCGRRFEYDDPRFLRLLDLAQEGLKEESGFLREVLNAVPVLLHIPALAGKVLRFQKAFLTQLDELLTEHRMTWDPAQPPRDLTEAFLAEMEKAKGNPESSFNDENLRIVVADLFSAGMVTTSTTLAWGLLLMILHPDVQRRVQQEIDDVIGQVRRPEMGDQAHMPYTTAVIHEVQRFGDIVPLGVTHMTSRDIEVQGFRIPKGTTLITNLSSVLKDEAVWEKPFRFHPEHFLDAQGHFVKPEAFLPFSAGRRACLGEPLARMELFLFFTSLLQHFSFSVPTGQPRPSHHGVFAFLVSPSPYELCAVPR
Chain of Photinus pyralis (firefly) luciferase (P08659 whole entry): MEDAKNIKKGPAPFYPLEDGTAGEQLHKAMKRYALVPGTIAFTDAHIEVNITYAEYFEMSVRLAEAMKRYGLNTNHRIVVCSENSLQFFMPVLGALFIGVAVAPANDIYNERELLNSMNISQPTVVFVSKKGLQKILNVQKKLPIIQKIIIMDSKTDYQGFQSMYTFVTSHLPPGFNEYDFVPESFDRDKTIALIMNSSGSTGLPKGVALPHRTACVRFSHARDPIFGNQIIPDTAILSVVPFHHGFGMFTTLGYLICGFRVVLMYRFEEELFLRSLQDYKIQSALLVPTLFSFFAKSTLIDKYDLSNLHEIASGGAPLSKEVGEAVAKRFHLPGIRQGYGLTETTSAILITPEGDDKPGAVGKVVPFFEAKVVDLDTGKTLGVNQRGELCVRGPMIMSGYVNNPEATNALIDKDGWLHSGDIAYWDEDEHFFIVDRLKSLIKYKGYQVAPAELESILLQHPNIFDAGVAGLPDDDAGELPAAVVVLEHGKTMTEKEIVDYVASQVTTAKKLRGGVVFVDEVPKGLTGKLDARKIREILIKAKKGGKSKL
T1 sequence (P33261 whole entry): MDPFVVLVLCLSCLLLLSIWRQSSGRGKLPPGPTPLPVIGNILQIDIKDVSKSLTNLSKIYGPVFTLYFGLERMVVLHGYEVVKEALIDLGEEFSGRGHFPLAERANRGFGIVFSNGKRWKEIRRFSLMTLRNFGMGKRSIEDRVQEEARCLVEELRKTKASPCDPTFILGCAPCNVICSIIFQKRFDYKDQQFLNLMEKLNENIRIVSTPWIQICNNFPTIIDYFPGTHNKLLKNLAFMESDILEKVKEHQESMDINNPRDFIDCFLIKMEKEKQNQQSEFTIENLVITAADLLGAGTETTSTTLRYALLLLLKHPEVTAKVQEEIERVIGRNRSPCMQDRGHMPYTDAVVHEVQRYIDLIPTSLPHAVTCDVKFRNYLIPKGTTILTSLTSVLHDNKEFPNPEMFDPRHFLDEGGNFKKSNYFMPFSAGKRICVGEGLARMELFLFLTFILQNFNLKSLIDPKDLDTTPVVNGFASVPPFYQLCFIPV
T2 sequence (P11712 whole entry): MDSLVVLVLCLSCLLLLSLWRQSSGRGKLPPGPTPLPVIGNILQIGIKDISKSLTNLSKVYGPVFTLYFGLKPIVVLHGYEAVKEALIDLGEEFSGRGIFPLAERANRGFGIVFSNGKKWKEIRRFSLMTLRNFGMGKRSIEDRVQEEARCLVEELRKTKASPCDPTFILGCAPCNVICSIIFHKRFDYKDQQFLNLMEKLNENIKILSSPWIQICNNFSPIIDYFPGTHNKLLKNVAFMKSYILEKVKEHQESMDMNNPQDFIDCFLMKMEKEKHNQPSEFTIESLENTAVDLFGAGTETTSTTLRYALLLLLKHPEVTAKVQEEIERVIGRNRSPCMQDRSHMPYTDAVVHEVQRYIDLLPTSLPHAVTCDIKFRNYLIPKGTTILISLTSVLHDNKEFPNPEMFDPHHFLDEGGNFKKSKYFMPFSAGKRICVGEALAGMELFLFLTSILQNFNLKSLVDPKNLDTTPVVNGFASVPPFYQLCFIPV

| Structure (SMILES) | IC50 [2] [µM] | IC50 [3] [µM] | Luciferase IC50 [5] | CYP1A2 IC50 [6] | IC50 ([1]; CYP2C19 IC50) [µM] | IC50 ([2]; CYP2C9 IC50) [µM] | IC50 ([3]; CYP2D6 IC50) [µM] | IC50 ([4]; CYP1A2 IC50) [µM] | further results |
| --- | --- | --- | --- | --- | --- | --- | --- | --- | --- |
| Nc1ccc(C(=O)N2CC3CC(CN(Cc4ccccc4)C3)C2)cc1 [Ambasilide] | 22.7 | 20.1 | Inactive |  |  |  |  |  | IC50 [1]: 30 µM; IC50 [4]: 30.9 µM |
| C[C@@H](O[C@H]1OCCN(Cc2n[nH]c(=O)[nH]2)[C@H]1c1ccc(F)cc1)c1cc(C(F)(F)F)cc(C(F)(F)F)c1 [Aprepitant] |  |  | Inactive | Inactive | 23.9 | 13.8 | 25 |  |  |
| CCN(CC)CCOC(=O)C(C)(c1ccccc1)c1ccccc1 [Aprofene] | 12.9 | 1.57 | Inactive | Inactive | 12.3 |  |  |  |  |
| CCC1(c2cnc[nH]2)Cc2ccccc2C1 [Atipamezole] | 1.21 ± 0.3 | 0.87 ± 0.1 | Inactive |  |  |  |  |  | IC50 [1]: 1.42 ± 0.4 µM; IC50 [4]: 11 ± 2.84 µM |
| CC(CC1c2ccccc2CCc2ccccc21)CN(C)C (stereo not drawn) [Butriptyline] |  |  |  | Inactive | 8.39 |  | 0.97 |  | CYP2C9 IC50 [7]: Inactive; IC50 [5]: 8.71 µM |
| Nc1ccc2c(c1)CN1C(=O)c3ccccc3C1=N2 [Daniquidone] |  |  |  |  |  |  |  |  | IC50 [1, 9]: 2.8 µM; IC50 [2, 10]: 5.05 µM; IC50 [3, 11]: 4.39 µM; IC50 [4, 12]: 0.67 µM; IC50 [5]: 0.36 µM |
| CN(C)[C@@H](CCOc1cccc2ccccc12)c1ccccc1 [Dapoxetine] | 16.8 ± 2.32 | 0.98 ± 0.11 | Inactive |  |  |  |  |  | IC50 [1]: 1.21 ± 0.3 µM; IC50 [4]: 5.87 ± 1.73 µM |
| Cc1cccc(Cc2c[nH]cn2)c1C [Detomidine hydrochloride] |  |  | Inactive |  | 1.96 | 0.41 | 2.37 | 1.15 |  |
| COc1ccc([C@@H]2Sc3ccccc3N(CCN(C)C)C(=O)[C@@H]2OC(C)=O)cc1 [Diltiazem] |  |  |  |  |  |  |  |  | CYP1A2 IC50 (half-maximal inhibitory concentration) [6]: Inactive; CYP2C9 IC50 (half-maximal inhibitory concentration) [7]: Inactive; CYP2C19 IC50 (half-maximal inhibitory concentration) [8]: Inactive; IC50 [3, 11]: 19.1 µM; Luciferase IC50 (half-maximal inhibitory concentration) [5]: Inactive |
| [O-][n+]1ccccc1SSc1cccc[n+]1[O-] [Dipyrithione] |  |  |  |  | 0.79 | 1.72 | 1.66 | 3.2 | AC50 [1]: 0.79 µM; AC50 ([2]; CYP2C9 AC50 (half-maximal activity concentration)): 1.72 µM; AC50 [3]: 1.66 µM; AC50 ([4]; CYP1A2 AC50 (half-maximal activity concentration)): 3.2 µM; IC50 [5]: 0.45 µM |
| CC1=C(C)C(=O)C(CCCCC#CCCCC#CCO)=C(C)C1=O [Docebenone] |  |  | Inactive |  | 11.4 | 5.22 | 25.8 | 3.27 |  |
| CCN(CC)CCOC(=O)C(c1ccccc1)C1CCCCC1 (stereo not drawn) [Drofenine hydrochloride] |  |  | Inactive |  | 18.8 | 26 | 1.19 | 5.85 |  |
| CN1C[C@H](C(=O)N[C@]2(C)O[C@@]3(O)[C@@H]4CCCN4C(=O)[C@H](Cc4ccccc4)N3C2=O)C=C2c3cccc4[nH]cc(c34)C[C@H]21 [Ergotamine D-tartrate] |  |  |  |  |  |  |  |  | IC50 [1, 9]: 37.4 µM; IC50 [2, 10]: 16.5 µM; IC50 [3, 11]: 31.3 µM; IC50 [4, 12]: 22.6 µM; IC50 [5]: 42.1 µM |
| CC[n+]1c(-c2ccccc2)c2cc(N)ccc2c2ccc(N)cc21 [Ethidium bromide] |  |  | Inactive |  | 13.1 | 47.7 | 0.93 | 9.62 |  |
| CCCCCCCCCCCCCCCC[N+](C)(C)CC [Ethylhexadecyldimethylammonium bromide] | 83.1 ± 5.63 | 0.61 ± 0.04 | Inactive |  |  |  |  |  | IC50 [1]: 89.6 µM; IC50 [4]: 74.4 ± 9.49 µM |
| CN(C)c1ccc(N=NS(=O)(=O)O)cc1 [Fenaminosulf] | 7.38 | 12.2 |  |  |  |  |  |  | IC50 [1]: 1.36 µM; IC50 [4]: 5.75 µM; IC50 [5]: 44.1 µM |
| CC(NCCC(c1ccccc1)c1ccccc1)c1ccccc1 (stereo not drawn) [Fendiline hydrochloride] |  |  | Inactive | Inactive | 5.65 | 15.5 | 0.23 |  |  |
| COP(=S)(OC)Oc1ccc(SC)c(C)c1 [Fenthion] | 6.1 | 37.2 |  |  | 0.91 |  |  | 2.53 | IC50 [5]: 44.8 µM |
| O=c1cc(-c2ccccc2)oc2ccccc12 [Flavone] | 14.6 | 62.5 ± 38.1 |  |  |  |  |  |  | IC50 [1]: 23.2 ± 7.47 µM; IC50 [4]: 0.26 µM; IC50 [5]: 21.6 µM |

| Structure (SMILES) | IC50 [2] [µM] | IC50 [3] [µM] | Luciferase IC50 [5] | CYP1A2 IC50 [6] | IC50 ([1]; CYP2C19 IC50) [µM] | IC50 ([2]; CYP2C9 IC50) [µM] | IC50 ([3]; CYP2D6 IC50) [µM] | IC50 ([4]; CYP1A2 IC50) [µM] | further results |
| --- | --- | --- | --- | --- | --- | --- | --- | --- | --- |
| CCCCC(CC)CN1CN(CC(CC)CCCC)CC(C)(N)C1 (stereo not drawn) [Hexetidine] |  |  | Inactive | Inactive |  |  | 0.48 |  | CYP2C9 IC50 [7]: Inactive; CYP2C19 IC50 [8]: Inactive |
| CN1CCCN(C(c2ccccc2)c2ccc(Cl)cc2)CC1 (stereo not drawn) [Homochlorcyclizine] |  |  | Inactive | Inactive | 26.3 |  | 0.38 |  | CYP2C9 IC50 [7]: Inactive |
| CCOC(=O)CC(SP(=S)(OC)OC)C(=O)OCC (stereo not drawn) [Malathion] |  |  |  |  | 0.54 | 1.78 | 58.1 | 2.12 | IC50 [5]: 37 µM |
| Cc1cc(O)c2ccccc2c1O [Menadiol] |  |  | Inactive |  | 13.4 | 12.2 | 19.3 | 0.8 |  |
| COc1nn(CSP(=S)(OC)OC)c(=O)s1 [Methidathion] | 6.58 | 35.7 |  |  | 0.8 |  |  | 6.58 | IC50 [5]: 44 µM |
| COCC(=O)O[C@]1(CCN(C)CCCc2nc3ccccc3[nH]2)CCc2cc(F)ccc2[C@@H]1C(C)C [Mibefradil dihydrochloride] |  |  | Inactive | Inactive |  |  | 0.53 |  | IC50 [1]: 38.9 µM; CYP2C9 IC50 [7]: Inactive |
| O=C(NCCc1c[nH]c2ccccc12)c1cccnc1 [Nicotredole] |  |  |  |  |  |  |  |  | IC50 [1, 9]: 8.39 µM; IC50 [2, 10]: 15.1 µM; IC50 [3, 11]: 31 µM; IC50 [4, 12]: 14.6 µM; IC50 [5]: 35.1 µM |
| Nc1c(Cl)c(Cl)c(Cl)c(Cl)c1Cl [Pentachloroaniline] | 51.5 | 75.3 | Inactive |  | 44 |  |  | 0.85 |  |
| CCCN1C[C@H](CSC)C[C@@H]2c3cccc4[nH]cc(c34)C[C@H]21 [Pergolide methanesulfonate] |  |  | Inactive |  | 8.43 | 6.26 | 0.15 | 6.54 |  |
| c1ccc2c(c1)Nc1ccccc1S2 [Phenothiazine] |  |  |  |  |  |  |  |  | IC50 [1, 9]: 4.3 µM; IC50 [2, 10]: 40.4 µM; IC50 [3, 11]: 30.8 µM; IC50 [4, 12]: 0.97 µM; IC50 [5]: 58.1 µM |
| Cc1ccc(N(CC2=NCCN2)c2cccc(O)c2)cc1 [Phentolamine mesilate] |  |  | Inactive | Inactive | 14.6 |  | 0.65 |  | CYP2C9 IC50 [7]: Inactive |
| CCOP(=S)(OCC)O/N=C(\C#N)c1ccccc1 [Phoxim] | 2.04 | 22.5 | Inactive |  | 0.28 |  |  | 0.99 |  |
| CN1CCC(=C2c3ccccc3CCc3sccc32)CC1 [Pizotifen] |  |  | Inactive | Inactive | 8.71 |  | 0.96 |  | AC50 [1]: 8.71 µM; CYP2C9 IC50 [7]: Inactive; AC50 [3]: 0.96 µM |
| CCCC(C(=O)OCCN(CC)CC)(c1ccccc1)c1ccccc1 [Proadifen hydrochloride] |  |  | Inactive | Inactive | 19.1 | 12.1 | 0.2 |  |  |
| c1cc2ccc3cccc4ccc(c1)c2c34 [Pyrene] |  |  | Inactive |  | 24.3 | 60.5 | 47.1 | 0.64 |  |
| O=C1NCN(c2ccccc2)C12CCN(CC1COc3ccccc3O1)CC2 (stereo not drawn) [Spiroxatrine] |  |  | Inactive | Inactive | 8.64 | 10.8 | 0.19 |  |  |
| CN1CCC(N(Cc2cccs2)c2ccccc2)CC1 [Thenalidine] |  |  | Inactive | Inactive | 36.8 |  | 0.53 |  | CYP2C9 IC50 [7]: Inactive; AC50 [3]: 0.53 µM |
| CCOC(=O)c1c(N)sc2c1CCN(Cc1ccccc1)C2 [Tinoridine] | 6.91 ± 5.97 | 0.02 ± 0.01 | Inactive |  |  |  |  |  | IC50 [1]: 0.71 ± 0.38 µM; IC50 [4]: 16.1 ± 1.09 µM |
